Experimental data from publication PMC7554340, “A Novel Dual-Targeted α-Helical Peptide With Potent Antifungal Activity Against Fluconazole-Resistant Candida albicans Clinical Isolates” (Frontiers in Microbiology, 2020).
pIC50: −log10 of the molar value. No end group written: not given here.

How the values were obtained:
C. albicans cgmcc 2.2086 = experiment: Antifungal activity assay (broth microdilution, MIC/MFC); assay type: cell-based, Candida albicans; conditions: for MFC: 50 μl of MIC wells plated on YPD agar, 28°C, 48 h, lowest concentration that completely killed fungal cells, consensus of at least three independent experiments; for MIC: cgmcc 2.2086, 48 h, pH 7
[1] = tested on: C. tropicalis cgmcc 2.1975; experiment: as above; assay type: cell-based, Candida tropicalis; conditions: for MFC: 50 μl of MIC wells plated on YPD agar, 28°C, 48 h, lowest concentration that completely killed fungal cells, consensus of at least three independent experiments; for MIC: cgmcc 2.1975, 48 h, pH 7
[2] = tested on: C. parapsilosis cgmcc 2.3989; experiment: as above; assay type: cell-based, Candida parapsilosis; conditions: for MFC: 50 μl of MIC wells plated on YPD agar, 28°C, 48 h, lowest concentration that completely killed fungal cells, consensus of at least three independent experiments; for MIC: cgmcc 2.3989, 48 h, pH 7
C. albicans 56452 = conditions: 56452, 48 h; for MIC: pH 7
C. albicans 56214 = conditions: 56214, 48 h; for MIC: pH 7
C. albicans 14936 = conditions: 14936, 48 h; for MIC: pH 7
C. albicans 17546 = conditions: 17546, 48 h; for MIC: pH 7
C. albicans 58288 = conditions: 58288, 48 h; for MIC: pH 7
C. albicans sp3902 = conditions: sp3902, 48 h; for MIC: pH 7
C. albicans sp3903 = conditions: sp3903, 48 h; for MIC: pH 7
C. albicans sp3931 = conditions: sp3931, 48 h; for MIC: pH 7
C. albicans sp3876 = conditions: sp3876, 48 h; for MIC: pH 7
human erythrocytes = conditions: for HC10: red cells of human, 1 h
IPEC-J2 cells = conditions: IPEC-J2 cells, MTT, 24 h treatment, 1-64 μM; probit regression
PMEC cells = conditions: PMEC cells, MTT, 24 h treatment, 1-64 μM; probit regression
IPEC-J2 and PMEC cells = experiment: Cytotoxicity MTT assay, statements for both cell lines; conditions: 24 h

KIGKVL-NH2 [KV]
MFC (C. albicans cgmcc 2.2086): >64 µM | MIC (C. albicans cgmcc 2.2086): >64 µM | MFC [1]: >64 µM | MIC [1]: >64 µM | MFC [2]: >64 µM | MIC [2]: >64 µM | MFC (C. albicans 56452): >64 µM | MIC (C. albicans 56452): >64 µM | MFC (C. albicans 56214): >64 µM | MIC (C. albicans 56214): >64 µM | MFC (C. albicans 14936): >64 µM | MIC (C. albicans 14936): >64 µM | MFC (C. albicans 17546): >64 µM | MIC (C. albicans 17546): >64 µM | MFC (C. albicans 58288): >64 µM | MIC (C. albicans 58288): >64 µM | MFC (C. albicans sp3902): >64 µM | MIC (C. albicans sp3902): >64 µM | MFC (C. albicans sp3903): >64 µM | MIC (C. albicans sp3903): >64 µM | MFC (C. albicans sp3931): >64 µM | MIC (C. albicans sp3931): >64 µM | MFC (C. albicans sp3876): >64 µM | MIC (C. albicans sp3876): >64 µM

KIGKVLLVKGIK-NH2 [KV2]
MFC (C. albicans cgmcc 2.2086): >64 µM | MIC (C. albicans cgmcc 2.2086): >64 µM | MFC [1]: >64 µM | MIC [1]: >64 µM | MFC [2]: >64 µM | MIC [2]: >64 µM | MFC (C. albicans 56452): >64 µM | MIC (C. albicans 56452): >64 µM | MFC (C. albicans 56214): >64 µM | MIC (C. albicans 56214): >64 µM | MFC (C. albicans 14936): >64 µM | MIC (C. albicans 14936): >64 µM | MFC (C. albicans 17546): >64 µM | MIC (C. albicans 17546): >64 µM | MFC (C. albicans 58288): >64 µM | MIC (C. albicans 58288): >64 µM | MFC (C. albicans sp3902): >64 µM | MIC (C. albicans sp3902): >64 µM | MFC (C. albicans sp3903): >64 µM | MIC (C. albicans sp3903): >64 µM | MFC (C. albicans sp3931): >64 µM | MIC (C. albicans sp3931): >64 µM | MFC (C. albicans sp3876): >64 µM | MIC (C. albicans sp3876): >64 µM

KIGKWLLWKGIKKIGKWL-NH2 [KW3]
MFC (C. albicans cgmcc 2.2086): 8 µM | MIC (C. albicans cgmcc 2.2086): 4 µM | MFC [1]: 2 µM | MIC [1]: 2 µM | MFC [2]: 8 µM | MIC [2]: 8 µM | MFC (C. albicans 56452): 4 µM | MIC (C. albicans 56452): 4 µM | MFC (C. albicans 56214): 8 µM | MIC (C. albicans 56214): 4 µM | MFC (C. albicans 14936): 8 µM | MIC (C. albicans 14936): 8 µM | MFC (C. albicans 17546): 8 µM | MIC (C. albicans 17546): 8 µM | MFC (C. albicans 58288): 8 µM | MIC (C. albicans 58288): 8 µM | MFC (C. albicans sp3902): 2 µM | MIC (C. albicans sp3902): 2 µM | MFC (C. albicans sp3903): 8 µM | MIC (C. albicans sp3903): 4 µM | MFC (C. albicans sp3931): 8 µM | MIC (C. albicans sp3931): 8 µM | MFC (C. albicans sp3876): 8 µM | MIC (C. albicans sp3876): 8 µM | hemolytic activity (in words) (human erythrocytes): strong hemolytic activities | HC10 (human erythrocytes): 2.69 µM | pIC50 (IPEC-J2 cells): 5.16 | pIC50 (PMEC cells): 4.99 | concentration at which statistically significant cytotoxic effects started (IPEC-J2 and PMEC cells): 4 µM

RIGRVLLVRGIRRIGRVL-NH2 [RV3]
MFC (C. albicans cgmcc 2.2086): 32 µM | MIC (C. albicans cgmcc 2.2086): 32 µM | MFC [1]: 16 µM | MIC [1]: 8 µM | MFC [2]: 32 µM | MIC [2]: 16 µM | MFC (C. albicans 56452): 16 µM | MIC (C. albicans 56452): 16 µM | MFC (C. albicans 56214): 32 µM | MIC (C. albicans 56214): 16 µM | MFC (C. albicans 14936): 32 µM | MIC (C. albicans 14936): 32 µM | MFC (C. albicans 17546): 64 µM | MIC (C. albicans 17546): 64 µM | MFC (C. albicans 58288): 32 µM | MIC (C. albicans 58288): 32 µM | MFC (C. albicans sp3902): 32 µM | MIC (C. albicans sp3902): 32 µM | MFC (C. albicans sp3903): 32 µM | MIC (C. albicans sp3903): 32 µM | MFC (C. albicans sp3931): 32 µM | MIC (C. albicans sp3931): 32 µM | MFC (C. albicans sp3876): 32 µM | MIC (C. albicans sp3876): 32 µM | HC10 (human erythrocytes): >64 µM | pIC50 (IPEC-J2 cells): < 4.19 | pIC50 (PMEC cells): < 4.19 | cytotoxic effects (in words) (IPEC-J2 and PMEC cells; 1-64 μM): negligible cytotoxic effects

RIGRWLLWRGIRRIGRWL-NH2 [RW3]
MFC (C. albicans cgmcc 2.2086): 4 µM | MIC (C. albicans cgmcc 2.2086): 4 µM | MFC [1]: 2 µM | MIC [1]: 2 µM | MFC [2]: 4 µM | MIC [2]: 4 µM | MFC (C. albicans 56452): 4 µM | MIC (C. albicans 56452): 4 µM | MFC (C. albicans 56214): 2 µM | MIC (C. albicans 56214): 2 µM | MFC (C. albicans 14936): 4 µM | MIC (C. albicans 14936): 4 µM | MFC (C. albicans 17546): 8 µM | MIC (C. albicans 17546): 8 µM | MFC (C. albicans 58288): 8 µM | MIC (C. albicans 58288): 4 µM | MFC (C. albicans sp3902): 2 µM | MIC (C. albicans sp3902): 2 µM | MFC (C. albicans sp3903): 8 µM | MIC (C. albicans sp3903): 2 µM | MFC (C. albicans sp3931): 4 µM | MIC (C. albicans sp3931): 4 µM | MFC (C. albicans sp3876): 4 µM | MIC (C. albicans sp3876): 4 µM | hemolytic activity (in words) (human erythrocytes): strong hemolytic activities | HC10 (human erythrocytes): 3.81 µM | pIC50 (IPEC-J2 cells): 4.83 | pIC50 (PMEC cells): 4.65 | concentration at which statistically significant cytotoxic effects started (IPEC-J2 and PMEC cells): 8 µM
